The test system of data set [1] is transgenic mice (Alzheimer disease model mice). As to the kind of experiment: Blood insulin concentration in Alzheimer disease model mice. Format: in vivo, mouse. To be noted: mice starved overnight; high fat diet-induced Alzheimer disease; p<0.05. The method, then: (§1) High fat diet (HFD) was given to transgenic mice (Alzheimer disease model mice) to induce cerebral hypofunction. Carnosine (L-histidine-β-alanine) was administered to the mice, and influence of carnosine was evaluated.
Blood was collected from mice starved overnight, and blood insulin concentration was determined with a kit (Morinaga).

Data set [2] shares this test system. As to the kind of experiment: Intracerebral inflammatory reaction by MRI in Alzheimer disease model mice. The format is in vivo, mouse. To be noted: carnosine administration group, high fat diet transgenic mice. How it is done:
as §1
(§2) Suppression of cerebral inflammation in the carnosine administration group was also shown by the results of MRI test (FIG. 8-2, red portions). The results of the microarray analysis indicated increase of expressions of GABA transporters such as 7Slc6a12 and slc6a13 observed in the Alzheimer model was suppressed in the carnosine administration group (FIG. 8-3).

The test system is the same in data set [3]. Put plainly: Blood cytokines in high fat diet Alzheimer disease model mice. The settings on record: carnosine-containing diet group. Format: in vivo, mouse. The method, then:
as §1, §2

A short description of data set [4]: Stability at ordinary temperature, under cooking conditions and in solution. The format is physicochemical. The settings on record: for stability under cooking conditions: cooking conditions of 180° C. or lower. An excerpt:
The agent, pharmaceutical composition, or nutritional composition of the present invention can be produced by using various known techniques. The step of adjusting concentration of the active ingredient to a predetermined concentration may be performed in various stages of the manufacturing process. Those skilled in the art can appropriately design the steps for producing the agent of the present invention in consideration of solubility, stability, volatility, etc. of the active ingredient. […] It was also confirmed that they can be stably stored over at least 2 years and 9 months in a state of solution.

For data set [5] the following is noted: cited from earlier work.
The test system of data set [6] is GABA transporters. As to the kind of experiment: Microarray analysis of GABA transporter genes in Alzheimer disease model mice. The format is in vivo, mouse. To be noted: carnosine administration group vs Alzheimer model. The method, then: as §1, §2

`NCCC(=O)N[C@@H](Cc1cnc[nH]1)C(=O)O` [carnosine]: the “increase of the blood insulin concentration” value in data set [1] is recorded as “suppressed”. In addition, the “cerebral inflammation (MRI test)” value in data set [2] was “Suppression”. The blood cytokines entry in data set [3] was “decreased”. Also, in data set [4], the “stability under cooking conditions” value is on record as “sufficiently stable” and the “stability at an ordinary temperature” value was “sufficiently stable”. The water solubility in data set [5] (at 25° C.) is 1 g/3.1 ml. Also, in data set [5], the “water solubility (in words)” value is on record as “water-soluble”. In data set [6], the “increase of expression of GABA transporter 7Slc6a12” value was “suppressed” and the “increase of expression of GABA transporter slc6a13” value was “suppressed”.

Regarding `Cn1cncc1C[C@H](NC(=O)CCN)C(=O)O` [anserine, (2S)-2-[(3-amino-1-oxopropyl)amino]-3-(3-methyl-4-imidazolyl)ppropanoic acid], in data set [4], the “stability under cooking conditions” value is listed as “sufficiently stable” and the “stability at an ordinary temperature” value is on record as “sufficiently stable”. In data set [5], the “water solubility (in words)” value is reported as “water-soluble”.

Source of the values: patent US20180140655A1, “AGENT CONTAINING IMIDAZOLE DIPEPTIDE” (THE UNIVERSITY OF TOKYO, priority 2014, published 2018).
